Results from publication PMC11928319 (Nature Plants, 2025).
Where no end group is shown, it is not given here.

What was measured:
[1] = tested on: filter-sterile supernatant of Rhodanobacter R179 (secreted peptidase(s)); experiment: Peptide quantification by mass spectrometry after incubation in cell-free supernatant of Rhodanobacter R179; assay type: in vitro ADME; conditions: for peptide detected by mass spectrometry after incubation in supernatant of the R179 dssAB mutant: filter-sterile supernatant of dssAB mutant cultivated in XVM2 (OD600 = 0.4); for peptide detected by mass spectrometry after incubation in supernatant of the R179 dssAB mutant / peptide detected by mass spectrometry after incubation in supernatant of wild-type R179: LC-MS MS1 peak area; for peptide detected by mass spectrometry after incubation in supernatant of wild-type R179: filter-sterile supernatant of wild-type R179 cultivated in XVM2 minimal medium (OD600 = 0.4), light chamber, n = 3 culture supernatants; for Log10(total_area_MS1) / percent_rel_axenic: incubation 1h; for Log10(total_area_MS1): MS1 precursor area; for percent_rel_axenic: peptide relative to axenic; for Total_area MS1 of identified AtPep1 cleavage product (acetylated […]): 1 µM AtPep1, LC-MS [M+2H]; for Total_area MS1 (intact flg22): 1 µM, LC-MS [M+2H]
Method: (§1) Elicitors were also supplemented into the medium prior to solidification at a final concentration of 1 µM. The flg22 ([…]) and AtPep1 ([…]) peptides were synthesized by EZbiolab. elf18^R179 (Ac-[…]) and elf18 (Ac-[…]) were synthesized by GenScript and EZbiolab, respectively. For inoculation with the bacterial supernatant, bacteria were cultivated overnight in XVM2 minimal medium (20 mM NaCl, 10 mM (NH4)2SO4, 5 mM MgSO4, 1 mM CaCl2, 0.16 mM KH2PO4, 0.32 mM K2HPO4, 0.01 mM FeSO4, 10 mM fructose, 10 mM sucrose, 0.03% Casamino acids, pH 6.7)[76] to a final concentration of OD600 = 0.4. Bacteria were pelleted by centrifugation (11,600 g, 2 min), and the supernatant was sterile-filtered using filter units with MF-Millipore membrane (0.22 µm; Millex). The supernatant was incubated in boiling water for 30 min for heat treatment. Then, 25 ml of 1× MS with 20 g l^−1 Bacto Agar was mixed with 25 ml of supernatant prior to medium solidification and poured into square petri dishes. Sterilized seeds were placed on solidified agar in square petri dishes and vertically incubated for 14 days.
(§2) Bacterial supernatants were prepared as described in ‘Agar-based cultivation of axenic plants and co-cultivation with bacteria, bacterial supernatants and elicitors’. Here, additionally, the peptides dRGF1 (DYSNPGHHP-Hyp-RHN) and PSY1 (D-Y(SO3H)-[…]-Hyp-Hyp-S) synthesized by Scilight Peptide were incubated for 1 h with 1 µM of peptides in a plant cultivation light chamber (day-light condition; see ‘Plant cultivation conditions’), and the samples were frozen at −20 °C until further processing. For the investigation of AtPep1 degradation, the AtPep1 peptide was first modified by acetylation (six to seven times). To this end, 100-µl aliquots of peptides were treated with 10 µl of NHS acetate solution (1 M NHS acetate in 50% ACN/PBS) and incubated for 30 min with shaking. The reaction was quenched by the addition of 100 µl of 100 mM Tris-HCl (pH 8.5) and incubated for 10 min. For comparison of the non-acetylated peptides with the above-described modified AtPep1 peptides, aliquots of the non-acetylated peptides were processed as described above, but without the modifying NHS reaction. To this end, 100-µl aliquots of the sample were mixed with 100 µl of PBS buffer (137 mM NaCl, 2.7 mM KCl, 10 mM Na2HPO4, 1.8 mM KH2PO4; pH 7.4). The samples were then further diluted with 100 µl of 100 mM Tris-HCl (pH 8.5) and incubated for 10 min. All samples were acidified with 5 µl of TFA and desalted using StageTips with C18 Empore disk membranes (3M)[109]. The samples were dried in a vacuum evaporator and dissolved in 10 µl of 2% ACN (0.1% TFA for analysis).
(§3) The samples were analysed using an EASY-nLC 1200 (Thermo Fisher) coupled to a QExactive Plus mass spectrometer (Thermo Fisher). Peptides were separated on 16-cm frit-less silica emitters (New Objective, 75 µm inner diameter), packed in-house with reversed-phase ReproSil-Pur C18 AQ 1.9 µm resin (Dr. Maisch). Peptides were loaded on the column and eluted for 50 min using a segmented linear gradient of 5% to 95% solvent B (0 min, 5% B; 0–5 min, 15% B; 5–35 min, 50% B; 35–45 min, 95% B; 45–50 min, 95% B) (solvent A: 0% ACN, 0.1% FA; solvent B: 80% ACN, 0.1% FA) at a flow rate of 300 nl min^−1. Mass spectra were acquired in data-dependent acquisition mode with a TOP10 method. Mass spectrometry spectra were acquired in the Orbitrap analyser with a mass range of 300–1,500 m/z at a resolution of 70,000 full width at half maximum (FWHM) and a target value of 3 × 10^6 ions. Precursors were selected with an isolation window of 1.3 m/z. Higher-energy collision dissociation (HCD) fragmentation was performed at a normalized collision energy of 25. Tandem mass spectrometry (MS/MS) spectra were acquired with a target value of 5 × 10^5 ions at a resolution of 17,500 FWHM, a maximum injection time of 85 ms and a fixed first mass of 100 m/z. […]

[2] = as above; assay type: in vitro ADME; conditions: axenic XVM2 medium, 1h, 1 µM AtPep1, NHS-acetate modified, LC-MS [M+2H]
Method: as §1, §2, §3

[3] = tested on: Arabidopsis wild type and efr mutant plants; experiment: elf18-induced shoot growth inhibition, shoot weight; assay type: in vivo, Arabidopsis thaliana; conditions: Arabidopsis Col-0, 1 µM, 2 weeks
[4] = R179 dssAB mutant supernatant, XVM2 medium, replicate 1
[5] = R179 dssAB mutant supernatant, XVM2 medium, replicate 2
[6] = R179 dssAB mutant supernatant, XVM2 medium, replicate 3
[7] = R179 wt supernatant, XVM2 medium, replicate 1
[8] = R179 wt supernatant, XVM2 medium, replicate 2
[9] = R179 wt supernatant, XVM2 medium, replicate 3
[10] = axenic XVM2 medium control, replicate 1
[11] = axenic XVM2 medium control, replicate 2
[12] = axenic XVM2 medium control, replicate 3
[13] = supernatant of wt R179 in XVM2 (OD600 = 0.4), 1h, replicate 1
[14] = supernatant of wt R179 in XVM2 (OD600 = 0.4), 1h, replicate 2
[15] = supernatant of wt R179 in XVM2 (OD600 = 0.4), 1h, replicate 3

Row | Substance | peptide detected by mass spectrometry after incubation in supernatant of the R179 dssAB mutant ([1]; 1 µM peptide, 1 h, n = 3) | peptide detected by mass spectrometry after incubation in supernatant of wild-type R179 ([1]; 1 µM peptide, 1 h) | Log10(total_area_MS1) [1, 4] | Log10(total_area_MS1) [1, 5] | Log10(total_area_MS1) [1, 6] | percent_rel_axenic [1, 4] [%] | percent_rel_axenic [1, 5] [%] | percent_rel_axenic [1, 6] [%] | Log10(total_area_MS1) [1, 8] | Log10(total_area_MS1) [1, 9] | percent_rel_axenic [1, 7] [%] | percent_rel_axenic [1, 8] [%] | percent_rel_axenic [1, 9] [%] | Log10(total_area_MS1) [1, 10] | Log10(total_area_MS1) [1, 11] | Log10(total_area_MS1) [1, 12] | percent_rel_axenic [1, 10] [%] | percent_rel_axenic [1, 11] [%] | percent_rel_axenic [1, 12] [%] | other results
1 | ATKVKAKQRGKEKVSSGRPGQHN [AtPep1] | depleted | depleted | 6.423 | 6.556 | 5.255 | 0.0095 | 0.0129 | 0.0006 | 5.86 | 6.66 | 0.086 | 0.0026 | 0.0164 | 10.4254 | 10.4615 | 10.4458 | 95.7106 | 103.993 | 100.296 | traces of AtPep1 detected after incubation in R179 supernatants ([1]; 1 µM peptide, 1 h, R179 supernatant in XVM2, AtPep1 acetylated before LC-MS): < 0.01%; Log10(total_area_MS1) [1, 7]: 7.379; Total_area MS1 of identified AtPep1 cleavage product (acetylated […]) ([1]; supernatant of R179 dssAB mutant in XVM2 (OD600 = 0.4), 1h, replicate 1): 2.38E+09; Total_area MS1 of identified AtPep1 cleavage product (acetylated […]) ([1]; supernatant of R179 dssAB mutant in XVM2 (OD600 = 0.4), 1h, replicate 2): 1.79E+09; Total_area MS1 of identified AtPep1 cleavage product (acetylated […]) ([1]; supernatant of R179 dssAB mutant in XVM2 (OD600 = 0.4), 1h, replicate 3): 2.15E+09; Total_area MS1 of identified AtPep1 cleavage product (acetylated […]) [1, 13]: 1.79E+09; Total_area MS1 of identified AtPep1 cleavage product (acetylated […]) [1, 14]: 1.66E+09; Total_area MS1 of identified AtPep1 cleavage product (acetylated […]) [1, 15]: 1.89E+09; Total_area MS1 of identified AtPep1 cleavage product (acetylated […]) ([2]; replicate 2): 0.00E+00; Total_area MS1 of identified AtPep1 cleavage product (acetylated […]) ([2]; replicate 3): 0.00E+00
2 | Ac-SKEKFERTKPHVNVGTIG [elf18] | depleted | depleted | 0 | 0 | 0 | 0 | 0 | 0 | 0 | 0 | 0 | 0 | 0 | 10.4989 | 10.552 | 10.527 | 93.8398 | 106.053 | 100.108 | shoot growth (shoot weight) upon peptide treatment [3]: Shoot growth inhibition
3 | QRLSTGSRINSAKDDAAGLQIA [flg22] | efficient and rapid (1 h) proteolytic degradation | efficient and rapid (1 h) proteolytic degradation | 0 | 0 | 0 | 0 | 0 | 0 | 0 | 0 | 0 | 0 | 0 | – | 8.543 | 8.745 | – | 75.7327 | 120.41 | peptide detected by mass spectrometry after incubation in heat-treated supernatant of wild-type R179 ([1]; 1 µM peptide, 1 h, supernatant boiled 30 min, XVM2, LC-MS MS1 peak area, n = 3): detected; Total_area MS1 (intact flg22) ([1]; axenic XVM2 medium, 1h, replicate 2): 3.04E+08; Total_area MS1 (intact flg22) ([1]; axenic XVM2 medium, 1h, replicate 3): 4.20E+08; Total_area MS1 (intact flg22) ([1]; heat-treated (HK-wt) supernatant of wt R179 in XVM2, 1h, replicate 1): 1.96E+09; Total_area MS1 (intact flg22) ([1]; heat-treated (HK-wt) supernatant of wt R179 in XVM2, 1h, replicate 2): 3.13E+09; Total_area MS1 (intact flg22) ([1]; heat-treated (HK-wt) supernatant of wt R179 in XVM2, 1h, replicate 3): 9.82E+08; Total_area MS1 (intact flg22) [1, 13]: 0.00E+00; Total_area MS1 (intact flg22) [1, 14]: 0.00E+00; Total_area MS1 (intact flg22) [1, 15]: 0.00E+00
